# Like-named read-outs stand apart in the source and are kept apart here.
# Test: Pharmacokinetic evaluation, beagle test
# Format: in vivo
# Conditions: beagles; for AUC(0-t): read-out: Area under curve AUC0-t; for half-life: read-out: Half-life T1/2 (converted); for Cmax: read-out: Plasma concentration Cmax
# Experimental: With beagles as test animals, the plasma concentrations of the compound of Example 26-1 and Comparative Example 1 were determined by LC/MS/MS at different time points after intragastric (i.g.)/intravenous (i.v.) administration to beagles. The pharmacokinetic behavior of the compound of the present disclosure in beagles was studied and its pharmacokinetic profile was evaluated.
# The compound of Example 26-1 and Comparative Example 1 (see patent WO2018102725A1, Example 411), whose structure is shown below:
# Sixteen beagles, of which half were male and half female, were evenly divided into 4 groups. The beagles were provided by Shanghai Medicilon Inc. The 4 groups were fasted overnight and then dosed intragastrically and intravenously.
# Certain amounts of the compound of Example 26-1 and the compound of Comparative Example 1 were weighed out and mixed with 5% (v/v) DMSO+30% (v/v) PG+30% (v/v) PEG400+35% (v/v) normal saline to make 0.4 mg/mL clear solutions (for the intragastric administration groups) and 0.25 mg/mL clear solutions (for the intravenous administration groups).
# The intragastric administration groups: the dose was 2.0 mg/kg, and the volume was 5.0 mL/kg.
# The intravenous administration groups: the dose was 0.5 mg/kg, and the volume was 2.0 mL/kg.
# The intragastric administration group: Blood (1.0 mL) was collected from the jugular vein or the forelimb vein into EDTA-K2 anticoagulation tubes before administration and 0.25 h, 0.5 h, 1.0 h, 2.0 h, 4.0 h, 6.0 h, 8.0 h, 12.0 h and 24.0 h after administration and centrifuged at 10,000 rpm for 5 min (4° C.). The plasma was separated within 1 h and stored at −80° C. before analysis. The process from blood collection to centrifugation was performed in an ice bath. Three hours after administration, feeding was resumed.
# The intravenous administration groups: Blood was collected before administration and 5 min, 0.25 h, 0.5 h, 1.0 h, 2.0 h, 4.0 h, 8.0 h, 12.0 h and 24 h after administration and processed as in the intragastric administration groups.
# The plasma concentrations of the test compounds were determined after administration of different concentrations of the test compounds to beagles: plasma samples (50 μL) were collected from beagles at various time points after administration, and proteins were precipitated with 500 μL of methanol (containing 100 ng/mL internal standard Verapamil) for each of the samples; the mixtures were vortexed for 1 min and centrifuged at 18,000 g for 7 min. 500 μL of supernatant was transferred to a 96-well plate. 1 μL of supernatant was collected for LC/MS/MS analysis.
# [1] = both sexes, beagle, dog, plasma, iv, i.v., 0.5 mg/kg
# [2] = both sexes, beagle, dog, plasma, po, i.g., 2.0 mg/kg
structure (smiles),measurement,setting,value
"O=C1CCC(N2Cc3cc(N4CCN(CC5CCN(c6ccc([C@@H]7c8ccc(O)cc8CC[C@@H]7c7ccccc7)cc6)CC5)CC4)ccc3C2=O)C(=O)N1 (stereo partly drawn) [Comparative Example 1, reference compound]",Clearance CL/F,"i.v., 0.5 mg/kg",2.8 mL/min/kg
same,AUC(0-t),[1],2680 ng·h/mL
same,half-life,[1],8.1 h
same,Cmax,[1],600 ng/mL
same,Vd/F,"both sexes, beagle, dog, plasma, po, i.g., 2.0 mg/kg, read-out: Apparent distribution volume Vz/F",5.5 L/kg
same,AUC(0-t),[2],4050 ng·h/mL
same,CL/F,"both sexes, beagle, dog, plasma, po, i.g., 2.0 mg/kg, read-out: Clearance CL/F",7.3 mL/min/kg
same,half-life,[2],9 h
same,Cmax,[2],324 ng/mL
